Test results: US7109193B2, “Tricyclic diazepines tocolytic oxytocin receptor antagonists” (Wyeth, priority 2001, dated 2006)

Molecular target: T1, human vasopressin V1a receptor subtype (Homo sapiens, UniProt P37288)
T1 construct: host or cells: CHO cells (pZeoSV vector for the Thibonnier line)
Assay: Vasopressin binding in Chinese Hamster Ovary cell membranes expressing human vasopressin V1a subtype receptors
Settings: 100 nM, CHO cell membranes, [3H]Manning ligand, values without parentheses
Procedure, shortened: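 Membranes from CHO cells expressing human V1a receptor were incubated with [3H]Manning ligand (added as 20 μL of 8 nM) in pH 7.4 Tris buffer with MgCl2, BSA and protease inhibitors, 60 min at room temperature. Bound radioactivity was counted after filtration; values are percent inhibition at a stated concentration or IC50.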

T1 sequence (P37288 whole entry): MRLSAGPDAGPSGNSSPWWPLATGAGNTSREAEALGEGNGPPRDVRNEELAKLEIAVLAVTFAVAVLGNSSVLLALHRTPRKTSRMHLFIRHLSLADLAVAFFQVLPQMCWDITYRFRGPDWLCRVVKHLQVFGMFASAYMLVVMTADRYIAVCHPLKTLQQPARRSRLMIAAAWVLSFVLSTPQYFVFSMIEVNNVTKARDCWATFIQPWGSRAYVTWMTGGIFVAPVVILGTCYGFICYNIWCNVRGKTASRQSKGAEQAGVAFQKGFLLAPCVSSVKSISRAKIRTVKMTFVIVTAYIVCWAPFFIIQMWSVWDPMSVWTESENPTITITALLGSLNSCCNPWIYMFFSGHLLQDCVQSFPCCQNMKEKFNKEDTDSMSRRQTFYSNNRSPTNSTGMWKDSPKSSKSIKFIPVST

Row | inhibition at 0.1 µM [%] | Compound
1 | 14 | COc1cccc(-c2ccc(C(=O)N3Cc4ccc(C(=O)N5CCN(C)CC5)n4Cc4ccccc43)cc2C)c1 [Example 51, {10-[(3′-Methoxy-2-methyl[1,1′-biphenyl]-4-yl)carbonyl]-10,11-dihydro-5H-pyrrolo[2,1-c][1,4]benzodiazepin-3-yl}(4-methyl-1-piperazinyl)methanone]
2 | 13 | COc1cccc(-c2ccc(C(=O)N3Cc4ccc(C(=O)N5CCCN(C)CC5)n4Cc4ccccc43)cc2C)c1 [Example 64, {10-[(3′-Methoxy-2-methyl[1,1′-biphenyl]-4-yl)carbonyl]-10,11-dihydro-5H-pyrrolo[2,1-c][1,4]benzodiazepin-3-yl}(4-methyl-1,4-diazepan-1-yl)methanone]
3 | 54 | Cc1ccccc1-c1ccc(C(=O)N2Cc3ccc(C(=O)N4CCN(C)CC4)n3Cc3ccccc32)cc1 [Example 52, {10-[(2′-Methyl[1,1′-biphenyl]-4-yl)carbonyl]-10,11-dihydro-5H-pyrrolo[2,1-c][1,4]benzodiazepin-3-yl}(4-methyl-1-piperazinyl)methanone]
4 | -7 | COc1cc(C(=O)N2Cc3ccc(C(=O)N4CCCN(C)CC4)n3Cc3ccccc32)ccc1-n1c(C)ccc1C [Example 307, {10-[4-(2,5-Dimethyl-1H-pyrrol-1-yl)-3-methoxybenzoyl]-10,11-dihydro-5H-pyrrolo[2,1-c][1,4]benzodiazepin-3-yl}(4-methyl-1,4-diazepan-1-yl)methanone]
5 | 24 | COc1ccccc1-c1ccc(C(=O)N2Cc3ccc(C(=O)N[C@@H](Cc4c[nH]cn4)C(N)=O)n3Cc3ccccc32)cc1C [Example 288, N-[(1S)-2-Amino-1-(1H-imidazol-4-ylmethyl)-2-oxoethyl]-10-[(2′-methoxy-2-methyl[1,1′-biphenyl]4-yl)carbonyl]-10,11-dihydro-5H-pyrrolo[2,1-c][1,4]benzodiazepine-3-carboxamide]
6 | 4 | CN1CCCN(C(=O)c2ccc3n2Cc2ccccc2N(C(=O)c2ccc(-c4cccc5ccccc45)cc2Cl)C3)CC1 [Example 71, {10-[2-Chloro-4-(1-naphthyl)benzoyl]-10,11-dihydro-5H-pyrrolo[2,1-c][1,4]benzodiazepin-3-yl}(4-methyl-1,4-diazepan-1-yl)methanone]
7 | 8 | COc1ccccc1-c1ccc(C(=O)N2Cc3ccc(C(=O)N[C@@H](Cc4c[nH]cn4)C(N)=O)n3Cc3ccccc32)cc1OC [Example 286, N-[(1S)-2-Amino-1-(1H-imidazol-4-ylmethyl)-2-oxoethyl]-10-[(2,2′-dimethoxy[1,1′-biphenyl]-4-yl)carbonyl]-10,11-dihydro-5H-pyrrolo[2,1-c][1,4]benzodiazepine-3-carboxamide]
8 | 38 | COc1ccccc1-c1ccc(C(=O)N2Cc3ccc(C(=O)N[C@@H](Cc4c[nH]cn4)C(N)=O)n3Cc3ccccc32)cc1 [Example 285, N-[(1S)-2-Amino-1-(1H-imidazol-4-ylmethyl)-2-oxoethyl]-10-[(2′-methoxy[1,1′-biphenyl]-4-yl)carbonyl]-10,11-dihydro-5H-pyrrolo[2,1-c][1,4]benzodiazepine-3-carboxamide]
9 | 2 | COc1ccccc1-c1ccc(C(=O)N2Cc3ccc(C(=O)N4CCN(C)CC4)n3Cc3ccccc32)cc1OC [Example 56, {10-[(2,2′-Dimethoxy[1,1′-biphenyl]-4-yl)carbonyl]-10,11-dihydro-5H-pyrrolo[2,1-c][1,4]benzodiazepin-3-yl}(4-methyl-1-piperazinyl)methanone]
10 | 11 | COc1cc(C(=O)N2Cc3ccc(C(=O)N(C)CCN(C)C)n3Cc3ccccc32)ccc1-n1c(C)ccc1C [Example 309, N-[2-(Dimethylamino)ethyl]-10-[4-(2,5-dimethyl-1H-pyrrol-1-yl)-3-methoxybenzoyl]-N-methyl-10,11-dihydro-5H-pyrrolo[2,1-c][1,4]benzodiazepine-3-carboxamide]
